Reference: patent US20250186405A1, “Compound For Use In Treating Narcolepsy” (Alkermes, Inc., priority 2023, published 2025)
Read-outs that look alike come from different tables or passages of the source.

Key:
[1] = tested on: subjects with narcolepsy type-2 (NT2); assay: Part 5 NT2: Karolinska Sleepiness Scale (KSS); assay type: in vivo, human; settings: for Change From Day −1 in Average Karolinska Sleepiness Scale, LSM difference vs placebo: NT2, N = 9; for Change From Day −1 in Average Karolinska Sleepiness Scale, LSM: NT2, N = 9, average of 1, 2, 4, 6, 8 h
Description: At points within the study, subjects were asked to rate their sleepiness using the KSS with regard to the level of sleepiness they experienced over the past 5 minutes.
The KSS is a validated, self-reported outcome measure of subjective sleepiness. The KSS was developed as a one-dimensional measure of sleepiness and has been validated against assessments like EEG and electrooculography activity (Akerstedt and Gillberg 1990). The KSS is comprised of a single question that asks the subject to rate their sleepiness in the immediately preceding 5 minutes on a 9-point scale where 1=extremely alert and 9=very sleepy, great effort to keep awake, fighting sleep. The KSS takes approximately 10 to 15 seconds to complete. Thus, the KSS is well suited for repeated measurement at short intervals as it assesses situational sleepiness within a short timeframe.
The PD parameters in the POC evaluation (e.g., changes from baseline in sleep latency on MWT, number of errors on SART and level of sleepiness on KSS at matched time points) were summarized using descriptive statistics for each time point by dose level.

[2] = tested on: subjects with narcolepsy type-1 (NT1); assay: Part 4 NT1: Maintenance of Wakefulness Test (MWT) sleep latency; assay type: in vivo, human; settings: for change from baseline in average sleep latency on MWT vs placebo: 1, 3 and 8 mg
Description: On Day −1, approximately 25 hours prior to study drug administration (on Day 1), baseline assessments for Maintenance of Wakefulness Test (MWT) began and were collected in a series of trials over approximately 10 hours.
At specified time points (Part 4), MWT assessments were performed and took up to 40 minutes to complete. The MWT is the standard objective measure of an individual's ability to remain awake during the daytime in a darkened, quiet environment and is commonly used to assess response to treatment. The MWT assessments were performed according to American Academy of Sleep Medicine (AASM) guidance. During the MWT trials, subjects were seated in a bed or reclining chair in a darkened room with their back and head supported such that their neck is not uncomfortably flexed or extended. Subjects are instructed to sit still and remain awake for as long as possible during each 40-minute trial. If the subject fell asleep during a trial, they were awakened, and the trial was terminated. […] Upon completion of the trial, the subject returned to a normal environment/ambiance and remained awake (and were awakened if they fall asleep) until the next trial.
Once Part 4 was completed, the EEG data recorded during the MWT, as well as the technician notes, were transferred to the EEG vendor for further analysis. Technician notes were also maintained for transfer to Sponsor at the end of the study. A precise assessment of sleep latency was conducted by an experienced sleep scorer from the EEG vendor, and spectral analysis was performed on the EEG data recorded during MWT to assess absolute and relative powers in standard frequency bands (i.e., qEEG). All raw data and analysis results were transferred to the Sponsor.
For the changes from baseline in average sleep latency across the first 4 sessions of the MWT, descriptive statistics were provided by dose level. Mixed model with repeated measure (MMRM) for the 4-period crossover design were conducted with the change from baseline as a dependent variable, and the dose level and the period as fixed factors. The differences in the least square means between each Compound A dose level and the placebo (each Compound A dose level—the placebo), and the 2-sided CIs were provided.
Evaluation of Compound A effects on average sleep latency across 4 timepoints of MWT (2-, 4-, 6-, and 8-hours post-dose) from 4 patients with NT1 has been conducted at pre-dose baseline series on Day −1, and each of the crossovers (Days 1, 3, 5 and 7), testing placebo, and active dose levels of 1, 3, and 8 mg in the patients with NT1 compared to placebo.
Evaluation of Compound A effects on average sleep latency across 4 timepoints of MWT (2-, 4-, 6-, and 8-hours post-dose) from 10 patients with NT1 (including the 4 patients described above in 4.19.1) has been conducted at pre-dose baseline series on Day −1, and each of the crossovers (Days 1, 3, 5 and 7), testing placebo, and active dose levels of 1, 3, and 8 mg in the patients with NT1 compared to placebo.

[3] = Part 4 NT1: plasma pharmacokinetics, single doses; assay type: in vivo; settings: human, oral; for Cmax / AUC(0-t): geometric mean
Description: Subjects were randomized to 1 of 4 sequences.
Blood samples (up to 5 mL per sample) were collected for PK analysis of Compound A and its metabolite(s). The actual time of sample collection was recorded. The PK samples of the subjects randomized to placebo treatment were not analyzed. Any remaining plasma PK samples were used to explore the presence of any additional metabolites and/or biomarkers.
Plasma and urine concentrations of Compound A and its metabolite(s) were measured using a validated high-performance liquid chromatography with tandem mass spectrometry.
The PK population was used for summaries of plasma Compound A and its metabolite(s) concentrations and for analyses, summaries, and listing of PK parameters. Dose proportionality for Cmax, AUC0-t, and AUC0-∞ was evaluated using a linear model of logarithmically transformed values to assess the slope parameter, and the 95% CI for the slope was estimated. Where a 95% CI of the slope includes 1, it was considered as evidence of dose proportionality for that PK parameter.

[4] = 1 mg, NT1, N = 9 (10-patient analysis, Table 13a)
[5] = 3 mg, NT1, N = 9 (10-patient analysis, Table 13a)
[6] = 8 mg, NT1, N = 10 (10-patient analysis, Table 13a)

CS(=O)(=O)N[C@H]1CCCN2C(=O)COc3ccccc3C3CCC(CC3)OCC12 (stereo partly drawn) [Compound A, N-[(4S,4aR,7α,10α)-1,2,3,4,4a,5,7,8,9,10,16,17-dodecahydro-17-oxo-7,10-ethanopyrido[1,2-d][1,7,4]benzodioxaazacyclotridecin-4-yl]methanesulfonamide]
Change From Day −1 in Average Karolinska Sleepiness Scale, LSM difference vs placebo ([1]; 5 mg): −0.31
Change From Day −1 in Average Karolinska Sleepiness Scale, LSM ([1]; 5 mg): −0.68
Change From Day −1 in Average Karolinska Sleepiness Scale, LSM difference vs placebo ([1]; 12 mg): −0.60
Change From Day −1 in Average Karolinska Sleepiness Scale, LSM ([1]; 12 mg): −0.97
Change From Day −1 in Average Karolinska Sleepiness Scale, LSM difference vs placebo ([1]; 25 mg): −1.42
Change From Day −1 in Average Karolinska Sleepiness Scale, LSM ([1]; 25 mg): −1.78
LS mean difference vs placebo in change from Day −1, average KSS ([1]; NT2, 5 mg): −0.31
LS mean difference vs placebo in change from Day −1, average KSS ([1]; NT2, 12 mg): −0.60
LS mean difference vs placebo in change from Day −1, average KSS ([1]; NT2, 25 mg): −1.42
average sleep latency improvement on MWT ([2]; 1 mg, 4 patients with NT1): 19.5 min
Change from Day −1 in Average Sleep Latency on the MWT, LSM difference vs placebo ([2]; 1 mg, NT1, N = 4): 19.47 min
Change from Day −1 in Average Sleep Latency on the MWT, LSM ([2]; 1 mg, NT1, N = 4, average of 2, 4, 6, 8 h post-dose): 18.41 min
Change from Day −1 in Average Sleep Latency on the MWT, LSM [2, 4]: 16.95 min
Change from Day −1 in Average Sleep Latency on the MWT, LSM difference vs placebo [2, 4]: 18.38 min
MWT by-timepoint effect ([2]; 3 mg, 4 patients with NT1): maximum effect over 2, 4 and 6-hour timepoints, and meaningful effect at 8 hours
Change from Day −1 in Average Sleep Latency on the MWT, LSM difference vs placebo ([2]; 3 mg, NT1, N = 4): 31.16 min
Change from Day −1 in Average Sleep Latency on the MWT, LSM ([2]; 3 mg, NT1, N = 4, average of 2, 4, 6, 8 h post-dose): 30.09 min
Change from Day −1 in Average Sleep Latency on the MWT, LSM [2, 5]: 21.15 min
Change from Day −1 in Average Sleep Latency on the MWT, LSM difference vs placebo [2, 5]: 22.57 min
MWT effect at every timepoint (maximum score 40 minutes) ([2]; 8 mg, 4 patients with NT1, including 10 hours post-dose): 40 min
Change from Day −1 in Average Sleep Latency on the MWT, LSM difference vs placebo ([2]; 8 mg, NT1, N = 4): 38.13 min
Change from Day −1 in Average Sleep Latency on the MWT, LSM ([2]; 8 mg, NT1, N = 4, average of 2, 4, 6, 8 h post-dose): 37.06 min
Change from Day −1 in Average Sleep Latency on the MWT, LSM [2, 6]: 32.55 min
Change from Day −1 in Average Sleep Latency on the MWT, LSM difference vs placebo [2, 6]: 33.97 min
change from baseline in average sleep latency on MWT vs placebo ([2]; 4 patients with NT1, 2-8 hours post-dose): statistically significant improvement in sleep latency
change from baseline in average sleep latency on MWT vs placebo ([2]; 10 patients with NT1, 2-8 hours post-dose): statistically significant improvement in sleep latency
Tmax ([3]; 1 mg, NT1, 1 mg single dose, median, N = 3, read-out: Tmax): 1.5 h
Tmax ([3]; 3 mg, NT1, 3 mg single dose, median, N = 4, read-out: Tmax): 1.5 h
Tmax ([3]; 8 mg, NT1, 8 mg single dose, median, N = 3, read-out: Tmax): 3 h
Tmax ([3]; 8 mg, NT1, single dose 1, 3 and 8 mg (range 0.5 to 4.0), read-out: median Tmax): 1.5 h
Cmax ([3]; NT1, 1 mg single dose, N = 3): 4.39 ng/mL
AUC(0-t) ([3]; NT1, 1 mg single dose, N = 3, read-out: AUC0-24): 19.5 ng·h/mL
Cmax ([3]; NT1, 3 mg single dose, N = 4): 11.6 ng/mL
AUC(0-t) ([3]; NT1, 3 mg single dose, N = 4, read-out: AUC0-24): 59.1 ng·h/mL
Cmax ([3]; NT1, 8 mg single dose, N = 3): 27.9 ng/mL
AUC(0-t) ([3]; NT1, 8 mg single dose, N = 3, read-out: AUC0-24): 169 ng·h/mL
